Tested on: Golden Syrian hamsters
Assay: Monocular form deprivation (MFD) myopia animal model, axial length by A-scan ultrasonography
Format: in vivo
Settings: after 21-day daily eye drop treatment
Protocol: 0.125% atropine eye drop was prepared under sterile conditions by dilution of 1% atropine ophthalmic solution with artificial tears (commercially available from Alcon Laboratories, Inc., Fort Worth, Tex., USA). The Extract A and/or Extract C were mixed with 5 ml artificial tears (commercially available from Alcon Laboratories, Inc., Fort Worth, Tex., USA) to reach a final concentration of 150 ng/ml by an oscillator.
3-week old Golden Syrian hamsters, each weighing 80 to 90 grams, were used for experiments. All animals were kept in a 12-hour light/dark cycle. All procedures were approved by the Institutional Animal Care and Use Committee of China Medical University and were conducted in accordance with the guidelines of the Use of Animals in Ophthalmic and Vision Research. Hamsters were raised with right eyelid fusion for 21 days. MFD was induced in the right eyes of the animals, with their left eyes serving as a control. The animals were randomly assigned to […] receiving daily applications of artificial tears or the eye drops prepared in Example 8, respectively, to both eyes. The treatment lasted for 21 days. The axial lengths of both eyes in each animal were measured on the 21st day following the start of the treatment by A-scan ultrasonography (PacScan 300 Plus, NY, USA).

**Q.** For `CN1[C@@H]2CC[C@H]1C[C@@H](OC(=O)C(CO)c1ccccc1)C2` (some centres unmarked) [Atropine, atropine], which “axial lengths of the non-MFD (left) eyes” value (Control 0.36±0.05 mm, differences not statistically significant) is on record?
**A.** Its value is 0.33±0.03 mm.

**Q.** What about the “axial lengths of the MFD (right) eyes” value (extracts 150 ng/ml, atropine 0.125%, Control 0.436±0.06 mm, p<0.05 vs Control) of the same compound?
**A.** Its value is 0.358±0.01 mm.
